In US20130197047A1, “OPHTHALMIC COMPOSITIONS OF PARASYMPATHETIC STIMULANTS AND ANTI-INFLAMMATORIES FOR USE IN THE TREATMENT OF PRESBYOPIA” (priority 2006, published 2013):
Where a name gives a salt, the structure may show the parent alone.

Legend:
presbyopic patient = details: does not solve blurred distant vision; cited from earlier work
Presbiopic patients = experiment: Topical eye-drop treatment of presbyopic patients (100 patients, 4 groups), follow-up of near and distant visual sharpness and tolerance; type: in vivo, human; details: of 100 patients treated
Protocol: 100 Presbiopic patients of both sexes, of age 40 to 65, were treated with the compositions of the invention. Exclusion criteria concerned patients with myopia or astigmatism higher than 1 dioptre, and hypermetropia greater than 3 dioptres as well as those with corneal, lens and vitreous opacitis, and chronic general pathologies. 4 Different groups of presbyopic population were differentiated: Group 1: Pure presbyopics Group 2: Presbyopics with hypermetropia Group 3: Presbyopics with phorias Group 4: Presbyopics with glaucoma Patients of all groups were treated with eye drops of different concentrations and combinations of medicaments acting on the ocular sympathetic innervation. Pure presbyopic patients (Group 1) were topically treated with 1% pilocarpine hydrochloride+0.5% diclofenac sodium, at 6 hr intervals during the daily hours; treatment was suspended at night. Presbyopics with hypermetropia (Group 2) were topically treated with 2% pilocarpine hydrochloride+0.5% diclofenac sodium, at 6 hr intervals during the daily hours. […] All patients were monitored after one week treatment and monthly during the first three months to evaluate dosage and side-effects. […]

Compound | result of topical application to presbyopic patient (presbyopic patient) | patients showed intolerance (diarrhoea and dyspepsia) (Presbiopic patients) [patients]
CNC(=O)Oc1ccc2c(c1)[C@]1(C)CCN(C)[C@@H]1N2C [physostygmine] | poor results | –
CC[C@@H]1C(=O)OC[C@@H]1Cc1cncn1C [pilocarpine hydrochloride] | – | 2
